Test results from US8686224B2, “Plant defense signal peptides” (priority 2005, dated 2014).
pEC50: −log10 of the molar value. Entries after “also recorded” stand apart in the source; their conditions may differ.

Columns and labels:
AtPEPR1 = molecular target: T1, AtPEPR1 (Arabidopsis thaliana, UniProt Q9SSL9); assay: Medium alkalinization of transgenic tobacco cells expressing AtPEPR1; format: cell-based
T1 construct: Tobacco cells were transformed with a CaMV-35S-AtPEPR1 gene; expressed in transfected cells; host or cells: tobacco suspension-cultured cells (Agrobacterium-mediated, CaMV 35S promoter)
T1 sequence (Q9SSL9 29-1123): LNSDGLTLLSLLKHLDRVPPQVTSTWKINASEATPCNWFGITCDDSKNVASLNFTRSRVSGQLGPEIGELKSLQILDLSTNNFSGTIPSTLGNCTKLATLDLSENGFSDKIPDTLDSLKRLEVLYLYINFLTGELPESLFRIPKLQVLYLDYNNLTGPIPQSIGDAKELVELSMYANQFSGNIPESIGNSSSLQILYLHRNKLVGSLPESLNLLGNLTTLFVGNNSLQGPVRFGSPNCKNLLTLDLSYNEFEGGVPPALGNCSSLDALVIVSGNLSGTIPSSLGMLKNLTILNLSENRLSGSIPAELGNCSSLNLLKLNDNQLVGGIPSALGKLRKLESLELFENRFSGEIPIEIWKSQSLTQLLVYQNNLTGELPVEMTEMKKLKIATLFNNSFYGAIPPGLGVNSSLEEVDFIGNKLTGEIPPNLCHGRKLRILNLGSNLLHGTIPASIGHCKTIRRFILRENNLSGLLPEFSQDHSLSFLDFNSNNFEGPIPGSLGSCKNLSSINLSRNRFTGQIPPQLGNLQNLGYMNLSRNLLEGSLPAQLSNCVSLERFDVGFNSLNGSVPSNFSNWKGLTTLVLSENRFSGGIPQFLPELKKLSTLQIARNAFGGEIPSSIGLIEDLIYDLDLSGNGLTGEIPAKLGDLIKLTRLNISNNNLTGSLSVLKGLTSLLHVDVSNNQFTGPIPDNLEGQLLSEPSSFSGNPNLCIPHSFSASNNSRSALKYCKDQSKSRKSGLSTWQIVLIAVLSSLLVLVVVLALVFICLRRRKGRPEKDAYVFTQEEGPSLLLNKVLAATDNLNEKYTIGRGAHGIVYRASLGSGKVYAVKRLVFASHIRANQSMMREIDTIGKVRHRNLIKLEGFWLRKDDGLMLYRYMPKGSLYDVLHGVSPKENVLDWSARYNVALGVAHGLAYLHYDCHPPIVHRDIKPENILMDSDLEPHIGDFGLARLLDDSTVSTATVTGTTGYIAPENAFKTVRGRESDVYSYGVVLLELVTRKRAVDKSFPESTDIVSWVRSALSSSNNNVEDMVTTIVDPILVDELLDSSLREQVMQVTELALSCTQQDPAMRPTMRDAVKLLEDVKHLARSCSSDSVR
From the text: Tobacco cells were transformed with a CaMV-35S-AtPEPR1 gene to determine whether the foreign receptor protein was targeted to the cell surface, where, in response to AtPep1, it would activate intracellular signaling to effect the alkalinization of the medium of the transgenic tobacco cells. Expression of the AtPEPR1 gene was confirmed by RT-PCR analysis of RNA from three independently transformed tobacco cell lines. […] AtPep2-7 was also supplied to the transgenic tobacco cells expressing AtPEPR1.
To clarify whether AtPEPR2 binds to AtPep1, the AtPEPR2 coding region was fused to the CaMV 35S promoter and introduced into tobacco suspension-cultured cells by Agrobacterium. Tobacco cells expressing AtPEPR1 and GUS genes were also created as positive and negative controls, respectively. […] These transgenic lines were analyzed for alkalinizing activity as previously described (Pearce et al., Proc. Natl. Acad. Sci. USA 98, 12843-12847, 2001).
The response to all AtPep peptides in transgenic tobacco cells expressing either AtPEPR1 or AtPEPR2 was analyzed by the medium alkalinization assay.

[1] = tested on: AtproPep1, MPK3 and WRKY gene expression; assay: Marker gene induction in two-week-old seedlings grown in liquid medium (RT-PCR, qRT-PCR); format: in vivo, Arabidopsis thaliana
Experimental: Using AtproPep1 and MPK3 as marker genes, the response to AtPep1 of the T-DNA insertional mutants was analyzed. […] […]1 and […]2 mutants are unable to respond to AtPEP1. To further examine the importance of […]1 and […]2 in AtPep1 signaling, the expression level of WRKY transcription factor genes, WRKY22, WRKY29, WRKY33. WRKY53 and WRKY55, were monitored by qRT-PCR after supplying AtPep1 to wild type Arabidopsis and T-DNA insertional mutants of […]1 and […]2. These WRKY genes were reported to be induced by the fungal PAMP, chitin (Wan et al., Plant Cell 20: 471-481, 2008), and the bacterial PAMPs, […] et al., Cell 125:749-760, 2006). […] In the double mutants, […] […] We also examined the effect of supplying AtPep1 to the double mutants on the expression of the antimicrobial protein genes, defensin (PDF1.2) and pathogenesis related protein (PR-1) […] peptides are known to induced these genes (Huffaker and Ryan, Proc. Natl. Acad. Sci. USA 104: 10732-10736, 2007). Since the expression levels of PDF1.2 and PR-1 gene in Arabidopsis seedlings grown in liquid medium were already high, the method of supplying AtPep1 was changed. Four-week-old Arabidopsis plants grown in soil were sprayed with 1 μM AtPep1 in 0.01% Silwet L-77, and subjected to qRT-PCR analysis after 6 hours.

[2] = AtPEPR1 expressing tobacco cells

H-ATKVKAKQRGKEKVSSGRPGQHN-OH [AtPep1]
pEC50 (AtPEPR1): ~9.60 | alkalinization of the medium (AtPEPR1; [2]): strong, reproducible alkalinization; also recorded: caused alkalinization of the media | maximal change (AtPEPR1; [2]): 1.2 pH units | response (AtproPep1, MPK3) in double mutants of AtPEPR1 and AtPEPR2 ([1]; 10 nM for 30 min): completely lost the response | response (AtproPep1, MPK3) in AtPEPR2 mutants ([1]; 10 nM for 30 min, SALK_036564 and SALK_004447): did not show the clear reduction | reduction of AtproPep1 and MPK3 induction in AtPEPR1 mutants ([1]; 10 nM for 30 min, SALK_059281 and SALK_014538): > 50% | WRKY responses in double mutants pepr1-1/pepr2-1 and pepr1-2/pepr2-2 ([1]; 10 nM, 30 min): completely abolished | lower induction of WRKY genes in pepr1-1 and pepr1-2 ([1]; 10 nM, 30 min): 50% | induction of WRKY33, WRKY53, WRKY22, WRKY29 and WRKY55 ([1]; 10 nM, 30 min, wild type): highly induced
